Assay results as given in ChEMBL document CHEMBL1909046, “DrugMatrix in vitro pharmacology data”.

Tests used:
[1] = molecular target: Sodium-dependent dopamine transporter (Homo sapiens, UniProt Q01959); assay: DRUGMATRIX: Dopamine Transporter radioligand binding (ligand: [125I] RTI-55); type: cell membranes, CHO-K1, Membrane; details: cho-k1; Not Active = under 50% inhibition at 10 µM
[2] = molecular target: T1, Alpha-2A adrenergic receptor (Homo sapiens, UniProt P08913); type: cell membranes, Sf9, Membrane; details: sf9; note: in other assays of this panel Not Active means under 50% inhibition at 10 µM
T1 sequence (P08913 whole entry): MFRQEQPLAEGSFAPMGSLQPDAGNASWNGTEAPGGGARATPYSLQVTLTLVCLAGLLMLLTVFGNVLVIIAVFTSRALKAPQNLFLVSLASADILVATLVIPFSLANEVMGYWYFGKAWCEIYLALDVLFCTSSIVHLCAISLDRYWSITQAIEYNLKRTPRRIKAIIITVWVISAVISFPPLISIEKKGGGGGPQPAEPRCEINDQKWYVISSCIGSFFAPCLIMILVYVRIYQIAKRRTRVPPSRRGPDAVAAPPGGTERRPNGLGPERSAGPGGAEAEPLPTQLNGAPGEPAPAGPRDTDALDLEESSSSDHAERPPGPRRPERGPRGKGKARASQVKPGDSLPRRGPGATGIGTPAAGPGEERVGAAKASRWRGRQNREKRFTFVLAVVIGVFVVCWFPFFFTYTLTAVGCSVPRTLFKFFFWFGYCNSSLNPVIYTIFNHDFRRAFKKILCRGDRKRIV

[3] = molecular target: T2, Muscarinic acetylcholine receptor M5 (Homo sapiens, UniProt P08912); type: cell membranes, CHO-K1, Membrane; details: cho-k1; note: in other assays of this panel Not Active means under 50% inhibition at 10 µM
T2 sequence (P08912 whole entry): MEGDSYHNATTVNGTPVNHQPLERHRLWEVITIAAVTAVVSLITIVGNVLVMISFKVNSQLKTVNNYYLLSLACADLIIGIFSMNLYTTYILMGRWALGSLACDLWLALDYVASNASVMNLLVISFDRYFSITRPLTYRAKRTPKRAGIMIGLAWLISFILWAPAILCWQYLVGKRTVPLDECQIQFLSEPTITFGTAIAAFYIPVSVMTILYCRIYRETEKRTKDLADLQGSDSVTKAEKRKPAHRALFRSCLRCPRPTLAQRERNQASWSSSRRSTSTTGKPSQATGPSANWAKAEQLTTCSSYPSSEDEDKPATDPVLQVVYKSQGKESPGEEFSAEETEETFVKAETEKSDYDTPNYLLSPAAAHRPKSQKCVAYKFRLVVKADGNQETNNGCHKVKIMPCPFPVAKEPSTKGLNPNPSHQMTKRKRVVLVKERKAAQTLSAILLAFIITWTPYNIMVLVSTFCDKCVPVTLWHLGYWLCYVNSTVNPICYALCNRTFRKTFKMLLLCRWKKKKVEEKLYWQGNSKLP

[4] = DRUGMATRIX: Sodium/nucleoside co-transporter radioligand binding (ligand: nitrobenzylthioinosine); type: cell membranes, Cavia porcellus, Dunkin-Hartley, Cerebral cortex, Membrane; details: Not Active = under 50% inhibition at 10 µM
[5] = molecular target: Aldo-keto reductase family 1 member B1 (Rattus norvegicus, UniProt P07943); type: tissue-based, Lens of camera-type eye;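 note: inhibition of aldose reductase enzyme activity, measured with DL-glyceraldehyde as the substrate; in other assays of this panel Not Active means under 50% inhibition at 10 µM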
[6] = molecular target: T3, Type-2 angiotensin II receptor (Homo sapiens, UniProt P50052); type: cell-based; details: cho-k1; note: in other assays of this panel Not Active means under 50% inhibition at 10 µM
T3 sequence (P50052 whole entry): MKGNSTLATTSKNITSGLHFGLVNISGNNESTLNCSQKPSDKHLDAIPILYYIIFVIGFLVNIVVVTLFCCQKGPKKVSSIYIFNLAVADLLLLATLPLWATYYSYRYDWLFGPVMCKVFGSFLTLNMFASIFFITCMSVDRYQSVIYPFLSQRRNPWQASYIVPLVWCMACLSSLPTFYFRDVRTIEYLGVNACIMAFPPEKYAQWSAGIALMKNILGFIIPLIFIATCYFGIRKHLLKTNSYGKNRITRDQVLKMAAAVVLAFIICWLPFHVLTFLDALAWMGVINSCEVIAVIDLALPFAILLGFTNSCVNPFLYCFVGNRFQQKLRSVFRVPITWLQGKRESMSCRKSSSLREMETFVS

[7] = molecular target: T4, Receptor-type tyrosine-protein phosphatase C (Homo sapiens, UniProt P08575); parameters: species or system Escherichia coli
T4 sequence (P08575 whole entry): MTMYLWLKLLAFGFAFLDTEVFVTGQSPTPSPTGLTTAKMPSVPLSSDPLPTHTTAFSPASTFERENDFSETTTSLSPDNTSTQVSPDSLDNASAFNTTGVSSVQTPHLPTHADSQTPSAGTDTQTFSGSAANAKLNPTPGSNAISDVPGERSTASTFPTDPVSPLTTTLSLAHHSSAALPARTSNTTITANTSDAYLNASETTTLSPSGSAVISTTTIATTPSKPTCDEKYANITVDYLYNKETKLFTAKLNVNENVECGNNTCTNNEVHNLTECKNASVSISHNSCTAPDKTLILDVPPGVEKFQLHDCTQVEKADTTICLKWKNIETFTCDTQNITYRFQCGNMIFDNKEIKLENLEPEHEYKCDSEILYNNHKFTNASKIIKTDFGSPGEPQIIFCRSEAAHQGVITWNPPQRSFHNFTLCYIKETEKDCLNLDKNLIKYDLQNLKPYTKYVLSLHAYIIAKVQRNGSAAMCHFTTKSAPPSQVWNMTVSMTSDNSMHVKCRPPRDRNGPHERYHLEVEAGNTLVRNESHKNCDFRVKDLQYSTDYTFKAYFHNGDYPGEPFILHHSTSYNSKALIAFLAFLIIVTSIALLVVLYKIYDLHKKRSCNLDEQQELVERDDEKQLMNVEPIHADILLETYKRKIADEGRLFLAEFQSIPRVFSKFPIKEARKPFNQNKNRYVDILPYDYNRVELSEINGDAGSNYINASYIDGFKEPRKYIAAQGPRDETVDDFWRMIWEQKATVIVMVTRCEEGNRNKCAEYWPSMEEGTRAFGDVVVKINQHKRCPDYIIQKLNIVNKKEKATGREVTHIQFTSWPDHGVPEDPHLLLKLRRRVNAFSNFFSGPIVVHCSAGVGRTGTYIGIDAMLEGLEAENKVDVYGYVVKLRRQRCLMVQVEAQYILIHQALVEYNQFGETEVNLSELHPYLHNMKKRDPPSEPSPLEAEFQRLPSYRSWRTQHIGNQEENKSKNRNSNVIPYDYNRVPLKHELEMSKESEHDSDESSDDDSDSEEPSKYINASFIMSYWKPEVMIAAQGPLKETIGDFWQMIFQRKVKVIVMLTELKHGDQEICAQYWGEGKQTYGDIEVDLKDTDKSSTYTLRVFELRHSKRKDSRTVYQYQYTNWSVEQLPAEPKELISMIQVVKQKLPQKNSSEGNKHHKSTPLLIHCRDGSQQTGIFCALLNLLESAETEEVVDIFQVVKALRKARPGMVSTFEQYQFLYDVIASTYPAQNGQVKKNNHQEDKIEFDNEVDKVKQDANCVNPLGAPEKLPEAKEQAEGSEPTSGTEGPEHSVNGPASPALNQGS

Sodium-dependent dopamine transporter, sequence (Q01959 whole entry): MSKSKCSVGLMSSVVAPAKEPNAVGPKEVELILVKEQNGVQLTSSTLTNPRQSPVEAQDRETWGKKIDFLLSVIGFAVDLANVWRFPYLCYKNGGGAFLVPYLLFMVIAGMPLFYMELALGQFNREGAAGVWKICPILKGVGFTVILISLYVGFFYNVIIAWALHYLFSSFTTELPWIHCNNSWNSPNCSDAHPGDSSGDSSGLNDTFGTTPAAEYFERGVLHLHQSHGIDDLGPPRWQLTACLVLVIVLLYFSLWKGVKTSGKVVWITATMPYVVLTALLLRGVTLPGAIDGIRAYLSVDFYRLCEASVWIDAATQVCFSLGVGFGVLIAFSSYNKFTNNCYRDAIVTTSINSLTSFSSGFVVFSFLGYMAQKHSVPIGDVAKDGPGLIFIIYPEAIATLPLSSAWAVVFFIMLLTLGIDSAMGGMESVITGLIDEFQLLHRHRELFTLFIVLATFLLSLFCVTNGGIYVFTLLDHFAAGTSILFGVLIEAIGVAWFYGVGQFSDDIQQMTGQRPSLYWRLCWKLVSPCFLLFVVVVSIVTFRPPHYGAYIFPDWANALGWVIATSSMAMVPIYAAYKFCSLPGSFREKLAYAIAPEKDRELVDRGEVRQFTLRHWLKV

O=C1OC2(c3ccc(O)cc3Oc3cc(O)ccc32)c2ccccc21 [FLUORESCEIN]
Not Active: IC50 [1] | IC50 [2] | IC50 [3] | IC50 [4] | Ki [4] | IC50 [5] | IC50 [6] | IC50 [7]

COC(=O)[C@H](c1ccccc1Cl)N1CCc2sccc2C1 [CLOPIDOGREL]
Not Active: IC50 [1] | IC50 [2] | IC50 [3] | IC50 [4] | Ki [4] | IC50 [5] | IC50 [6] | IC50 [7]

Brc1ccccc1 [BROMOBENZENE]
Not Active: IC50 [1] | IC50 [2] | IC50 [3] | IC50 [4] | Ki [4] | IC50 [5] | IC50 [6] | IC50 [7]

CC(C)NC[C@H](O)COc1cccc2[nH]ccc12
Not Active: IC50 [1] | IC50 [2] | IC50 [3] | IC50 [4] | Ki [4] | IC50 [5] | IC50 [6] | IC50 [7]

CCCSc1ccc2nc(NC(=O)OC)[nH]c2c1 [ALBENDAZOLE]
Not Active: IC50 [1] | IC50 [2] | IC50 [3] | IC50 [4] | Ki [4] | IC50 [5] | IC50 [6] | IC50 [7]

Cc1c(-c2ccccc2)oc2c(C(=O)OCCN3CCCCC3)cccc2c1=O [FLAVOXATE]
Not Active: IC50 [1] | IC50 [2] | IC50 [3] | IC50 [4] | Ki [4] | IC50 [5] | IC50 [6] | IC50 [7]

O=c1[nH]cc(F)c(=O)[nH]1 [FLUOROURACIL]
Not Active: IC50 [1] | IC50 [2] | IC50 [3] | IC50 [4] | Ki [4] | IC50 [5] | IC50 [6] | IC50 [7]

COc1ccc2cc(CC(=O)O)ccc2c1
Not Active: IC50 [1] | IC50 [2] | IC50 [3] | IC50 [4] | Ki [4] | IC50 [5] | IC50 [6] | IC50 [7]

CC[C@@]1(O)C(=O)OCc2c1cc1n(c2=O)Cc2cc3ccccc3nc2-1 [CAMPTOTHECIN]
Not Active: IC50 [1] | IC50 [2] | IC50 [3] | IC50 [4] | Ki [4] | IC50 [5] | IC50 [6] | IC50 [7]

NCC1(CC(=O)O)CCCCC1 [GABAPENTIN]
Not Active: IC50 [1] | IC50 [2] | IC50 [3] | IC50 [4] | Ki [4] | IC50 [5] | IC50 [6] | IC50 [7]

CN1C(C(=O)Nc2ccccn2)=C(O)c2ccccc2S1(=O)=O [PIROXICAM]
Not Active: IC50 [1] | IC50 [2] | IC50 [3] | IC50 [4] | Ki [4] | IC50 [5] | IC50 [6] | IC50 [7]

C=C1[C@@H]2CCC3[C@@](CC[C@@H]4[C@H](C(=O)O)C[C@@H](O[C@@H]5O[C@H](CO)[C@@H](OS(=O)(=O)[O-])[C@H](OS(=O)(=O)[O-])[C@H]5OC(=O)CC(C)C)C[C@@]34C)(C2)[C@@H]1O.[K+].[K+] (stereo partly specified) [ATRACTYLOSIDE]
Not Active: IC50 [1] | IC50 [2] | IC50 [3] | IC50 [4] | Ki [4] | IC50 [5] | IC50 [6] | IC50 [7]
